Results reported in patent publication US20240366543A1, “METHODS OF TREATING METHYLMALONIC ACIDEMIA AND PROPIONIC ACIDEMIA” (HemoShear Therapeutics, Inc., priority 2021, published 2024).

Tests used:
Format in all cases: cell-based, human
[1] = test system: primary hepatocytes of propionic acidemia patients; test: Propionyl-CoA from 13C-labelled sources in PA primary hepatocytes (Example 1); details: 0-100 μM
Method: Primary hepatocytes isolated from livers of propionic acidemia patients are treated with increasing doses of Compound 5 (0, 0.1, 0.3, 1, 3, 10, 30, 100 μM) for 30 minutes. After 30 minutes the cells are challenged with the different sources of P-CoA, which may include 13C-KIVA (1 mM), 13C-isoleucine (3 mM), 13C-threonine (5 mM), 13C-methionine (5 mM), 13C-heptanoate (100 μM), or 13C-propionate (5 mM) for 60 minutes. At the end of the challenge period, media is removed and the cells are lysed with 70% MeCN and 0.1% TFA containing 100 μM of ethymalonyl-CoA as an internal standard and harvested. Cell lysates are processed for HTMS/MS analysis.

[2] = test system: primary hepatocytes of methylmalonic acidemia patients; test: Propionyl-CoA and methylmalonyl-CoA from 13C-labelled sources in MMA primary hepatocytes (Example 2)
Method: Primary hepatocytes isolated from livers of methylmalonic acidemia patients are treated with increasing doses of Compound 5 (0, 0.1, 0.3, 1, 3, 10, 30, 100 µM) for 30 min. After 30 minutes the cells are challenged with the different sources of P-CoA, which may include 13C-KIVA (1 mM), ^13C-isoleucine (3 mM), ^13C-threonine (5 mM), ^13C-methionine (5 mM), ^13C-heptanoate (100 μM), or ^13C-propionate (5 mM) for 60 minutes. At the end of the challenge period, media is removed and the cells are lysed with 70% MeCN and 0.1% TFA containing 100 μM of ethymalonyl-CoA as an internal standard and harvested. Cell lysates are processed for HTMS/MS analysis.

[3] = test system: Hepatocytes from propionic academia patients; test: Ureagenesis (15N-urea) in HemoShear REVEAL-Tx technology (Example 3); details: PA primary hepatocytes, treated day 5 to day 7, 15N-NH4Cl 4 hrs
Excerpt: For this experiment, we deployed the HemoShear REVEAL-Tx™ technology, which is based on the cone-and-plate configuration or viscometer combined with a porous polycarbonate membrane that mimics a filtering layer of sinusoidal endothelial cells (see: Dash A, Deering TG, Marukian S, et al. Physiological Hemodynamics and Transport Restore Insulin and Glucagon Responses in a Normal Glucose Milieu in Hepatocytes In Vitro. 73rd Scientific Sessions of the American Diabetes Association, 2013 (Chicago), and U.S. Pat. Nos. 7,811,782 and 9,500,642, and 9,617,521, each of which is incorporated by reference herein in its entirety).
Hepatocytes from propionic academia patients are plated in a collagen gel sandwich on one side of the membrane replicating the polarized orientation found in vivo within the hepatic sinusoids. On the other side, medium is continuously perfused and surface shear rates are applied across a range of physiological values derived from sinusoidal flow rates in vivo while also controlling transport in the system with in- and out-flow tubing to each compartment. […]
Hepatocytes are treated with increasing doses of Compound 5 (0, 0.1, 0.3, 1, 3, 10, 30, 100 μM) in the HemoShear REVEAL-Tx™ technology from day 5 to day 7. […] After 4 hrs, cells are washed 2× in saline solution and lysed, scraped and harvested using 80% methanol. ^15N-urea is measured by GCMSMS.

[4] = test system: primary hepatocytes (pHeps) from MMA donors; test: HemoShear REVEAL-Tx Technology, MMA pHeps
[5] = test system: PA pHeps; test: Static cell culture, PA pHeps, low/high propiogenic media; details: for % change at 30 μM, 13C-Propionyl-CoA (13C-P-CoA): static cell culture; for Percent change (30 μM), 12C-Acetyl-CoA / Percent change (30 μM), CoASH: static culture 1.5 h
Method: (§1) Unlike the HemoShear Technology, this assay is carried out without constant perfusion, utilizing cell culture media that was customized to mimic plasma levels of propiogenic sources (amino acids and ketoacids) in PA and MMA patients during periods of relative metabolic stability (low propiogenic media) and acute metabolic crisis (high propiogenic media). PA and MMA pHeps, in static cell culture, were treated with Compound 5 (concentrations ranging from 0.1 μM to 100 μM) for 30 minutes in low propiogenic media, followed by either a continuation of low propiogenic media or a switch to the high propiogenic media for 1 hour. The media used during the 1-hour incubation contained propiogenic SIL amino acids and ketoacids which are metabolized into labeled P-CoA and M-CoA in the cells. The SIL amino acids and ketoacids were a mix of ^13C and MeD8 labelling, but their catabolism produced a SIL P-CoA (denoted as ^13C—P-CoA for simplicity) with the same mass, independent of the type of SIL (also true for ^13C-M-CoA).

[6] = test system: MMA pHeps; test: Static cell culture, MMA pHeps, low/high propiogenic media; details: for Percent change (30 μM), 12C-Acetyl-CoA / Percent change (30 μM), CoASH: static culture 1.5 h
Method: as §1

[7] = static cell culture, high propiogenic media
[8] = static cell culture, low propiogenic media

## CCC(C)(C)C(=O)O [Compound 5, 2,2-dimethylbutyric acid]
[1]
  intracellular propionyl-CoA from all sources investigated: dose-dependent reduction
[2]
  intracellular propionyl-CoA and methylmalonyl-CoA from all sources investigated: dose-dependent reduction
[3]
  15N-urea (ureagenesis): dose-dependent increase
[4]; 30 μM
  average reduction in the C3/C2 ratio (log 2 fold change): −2.2±0.2 log 2 fold change
[4]; average ± SD
  % change at 30 μM, 2-Methylcitric acid (2MC): −66.7±14.9%
  % change at 30 μM, 12C-Acetyl-Carnitine (C2): 44.6 ± 26.8%
  % change at 30 μM, 12C-Methylmalonyl-CoA (M-CoA): −55±6.6%
  % change at 30 μM, 12C-Propionyl-Carnitine (C3): −65.9±10.7%
  % change at 30 μM, 12C-Propionyl-CoA (P-CoA): −74.2±11.6%
[4]; exposed 6 days
  Percent change at 30 μM, 12C-Acetyl-CoA: 13.5 ± 24.9%
  Percent change at 30 μM, CoASH: −22.3 ± 22.3%
[5]; high propiogenic media
  % change at 30 μM, 13C-Propionyl-CoA (13C-P-CoA): −85.3±9.1%
  Percent change (30 μM), 12C-Acetyl-CoA: −27 ± 3.4%
  Percent change (30 μM), CoASH: −48 ± 14.3%
[5]; low propiogenic media
  % change at 30 μM, 13C-Propionyl-CoA (13C-P-CoA): −76.4±12.6%
  Percent change (30 μM), 12C-Acetyl-CoA: −36.6 ± 13.5%
  Percent change (30 μM), CoASH: −55.2 ± 7.1%
[6]; [7]
  % change at 30 μM, 13C-Methymalonic acid: −91 ± 4%
  % change at 30 μM, 13C-Propionyl-CoA (13C-P-CoA): −75.9±7.3%
[6]; [8]
  % change at 30 μM, 12C-Methylmalonyl-CoA (13C-M-CoA): −76.5±13.2%
  % change at 30 μM, 13C-Methymalonic acid: −83.2 ± 5^ %
  % change at 30 μM, 13C-Propionyl-CoA (13C-P-CoA): −77.6±9.8%
[6]; high propiogenic media
  Percent change (30 μM), 12C-Acetyl-CoA: −14.6 ± 12.6%
  Percent change (30 μM), CoASH: −28.7 ± 7.3%
[6]; low propiogenic media
  Percent change (30 μM), 12C-Acetyl-CoA: −35.5 ± 18.1%
  Percent change (30 μM), CoASH: −47.7 ± 13.4%
